{
  "source": "PubChem BioAssay AID1918945",
  "about": "(Molecular Pharmacology Branch, DTP, NCI, 2023)",
  "test_system": "883617-216-R-J1-PDC complex spheroid viability",
  "test": "Anticancer human tumor 883617-216-R-J1-PDC patient-derived bladder carcinoma cell line growth inhibition",
  "details": "for viability, T/C: stronger effect = lower value",
  "outline": "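Multicellular complex spheroids of tumor cells with human endothelial cells (HUVEC) and mesenchymal stem cells; the LSD1 inhibitor iadademstat was combined with standard-of-care or investigational agents. Top concentration at or near clinical Cmax, half-log dilutions; final DMSO ≤0.25%.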",
  "key": {"[1]": {"details": "curve of first compound, second compound 0.1 µM"}, "[2]": {"details": "curve of first compound, second compound 0.316 µM"}, "[3]": {"details": "curve of first compound, second compound 1 µM"}, "[4]": {"details": "curve of first compound, second compound 3.16 µM"}, "[5]": {"details": "curve of first compound, second compound 10 µM"}},
  "note": "Where “and” joins values, the source holds several entries; their conditions need not be identical. Identical values can stand only once.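 Further: exposure lasted seven days after three days of spheroid growth.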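 Wherever viability, T/C is given: 100% = DMSO vehicle control luminescence.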",
  "data": [
    {"smiles": "CC[C@@]1(O)C(=O)OCc2c1cc1n(c2=O)Cc2cc3c(CN(C)C)c(O)ccc3nc2-1", "values": [
      {"measurement": "viability, T/C", "setting": "compound 0.000316 µM", "result": "95.7% and 78.2%"},
      {"measurement": "viability, T/C", "setting": "compound 0.001 µM", "result": "78.1% and 65.8%"},
      {"measurement": "viability, T/C", "setting": "compound 0.00316 µM", "result": "60.2% and 37.7%"},
      {"measurement": "viability, T/C", "setting": "compound 0.01 µM", "result": "38.6% and 29.1%"},
      {"measurement": "viability, T/C", "setting": "compound 0.0316 µM", "result": "39.1% and 27.6%"},
      {"measurement": "viability, T/C", "setting": "compound 0.1 µM", "result": "27.7% and 20%"},
      {"measurement": "IC50", "setting": "curve of compound", "result": "5.86 nM and 1.95 nM"}
    ]},
    {"smiles": "CC1COCCN1c1cc(-c2ccnn2C)c2ccnc(-c3ccn[nH]3)c2n1", "note": "(centres undefined)", "values": [
      {"measurement": "viability, T/C", "setting": "compound 0.00316 µM", "result": "83.2% and 50.8%"},
      {"measurement": "viability, T/C", "setting": "compound 0.01 µM", "result": "64.8% and 42.2%"},
      {"measurement": "viability, T/C", "setting": "compound 0.0316 µM", "result": "47% and 33.7%"},
      {"measurement": "viability, T/C", "setting": "compound 0.1 µM", "result": "35% and 27.4%"},
      {"measurement": "viability, T/C", "setting": "compound 0.316 µM", "result": "34.6% and 23.9%"},
      {"measurement": "viability, T/C", "setting": "compound 1 µM", "result": "26.3% and 21.2%"},
      {"measurement": "IC50", "setting": "curve of compound", "result": "26.5 nM and 3.53 nM"}
    ]},
    {"smiles": "COc1cc(C2c3cc4c(cc3C(OC3OC5COC(C)OC5C(O)C3O)C3COC(=O)C23)OCO4)cc(OC)c1O", "note": "(centres undefined) + NC1CC1c1ccc(-c2cccc(O)c2)cc1", "values": [
      {"measurement": "IC50", "setting": "[1]", "result": 163, "unit": "nM"},
      {"measurement": "IC50", "setting": "[2]", "result": 156, "unit": "nM"},
      {"measurement": "IC50", "setting": "[3]", "result": 92.8, "unit": "nM"},
      {"measurement": "IC50", "setting": "[4]", "result": 76.5, "unit": "nM"},
      {"measurement": "IC50", "setting": "[5]", "result": 58, "unit": "nM"},
      {"measurement": "viability, T/C", "setting": "second compound 0.1 µM, first compound 0.00949 µM", "result": 99.3, "unit": "%"},
      {"measurement": "viability, T/C", "setting": "second compound 0.1 µM, first compound 0.03 µM", "result": 73, "unit": "%"},
      {"measurement": "viability, T/C", "setting": "second compound 0.1 µM, first compound 0.0949 µM", "result": 56.1, "unit": "%"},
      {"measurement": "viability, T/C", "setting": "second compound 0.1 µM, first compound 0.3 µM", "result": 43.9, "unit": "%"},
      {"measurement": "viability, T/C", "setting": "second compound 0.1 µM, first compound 0.949 µM", "result": 35.4, "unit": "%"},
      {"measurement": "viability, T/C", "setting": "second compound 0.1 µM, first compound 3 µM", "result": 31.6, "unit": "%"},
      {"measurement": "viability, T/C", "setting": "second compound 0.316 µM, first compound 0.00949 µM", "result": 103, "unit": "%"},
      {"measurement": "viability, T/C", "setting": "second compound 0.316 µM, first compound 0.03 µM", "result": 79.6, "unit": "%"},
      {"measurement": "viability, T/C", "setting": "second compound 0.316 µM, first compound 0.0949 µM", "result": 55.6, "unit": "%"},
      {"measurement": "viability, T/C", "setting": "second compound 0.316 µM, first compound 0.3 µM", "result": 41.9, "unit": "%"},
      {"measurement": "viability, T/C", "setting": "second compound 0.316 µM, first compound 0.949 µM", "result": 39.8, "unit": "%"},
      {"measurement": "viability, T/C", "setting": "second compound 0.316 µM, first compound 3 µM", "result": 34.9, "unit": "%"},
      {"measurement": "viability, T/C", "setting": "second compound 1 µM, first compound 0.00949 µM", "result": 106, "unit": "%"},
      {"measurement": "viability, T/C", "setting": "second compound 1 µM, first compound 0.03 µM", "result": 81, "unit": "%"},
      {"measurement": "viability, T/C", "setting": "second compound 1 µM, first compound 0.0949 µM", "result": 48.8, "unit": "%"},
      {"measurement": "viability, T/C", "setting": "second compound 1 µM, first compound 0.3 µM", "result": 38.8, "unit": "%"},
      {"measurement": "viability, T/C", "setting": "second compound 1 µM, first compound 0.949 µM", "result": 41.3, "unit": "%"},
      {"measurement": "viability, T/C", "setting": "second compound 1 µM, first compound 3 µM", "result": 31.4, "unit": "%"},
      {"measurement": "viability, T/C", "setting": "second compound 3.16 µM, first compound 0.00949 µM", "result": 90.6, "unit": "%"},
      {"measurement": "viability, T/C", "setting": "second compound 3.16 µM, first compound 0.03 µM", "result": 67.7, "unit": "%"},
      {"measurement": "viability, T/C", "setting": "second compound 3.16 µM, first compound 0.0949 µM", "result": 43.7, "unit": "%"},
      {"measurement": "viability, T/C", "setting": "second compound 3.16 µM, first compound 0.3 µM", "result": 37.7, "unit": "%"},
      {"measurement": "viability, T/C", "setting": "second compound 3.16 µM, first compound 0.949 µM", "result": 33.5, "unit": "%"},
      {"measurement": "viability, T/C", "setting": "second compound 3.16 µM, first compound 3 µM", "result": 27.9, "unit": "%"},
      {"measurement": "viability, T/C", "setting": "second compound 10 µM, first compound 0.00949 µM", "result": 82.4, "unit": "%"},
      {"measurement": "viability, T/C", "setting": "second compound 10 µM, first compound 0.03 µM", "result": 59.5, "unit": "%"},
      {"measurement": "viability, T/C", "setting": "second compound 10 µM, first compound 0.0949 µM", "result": 37.4, "unit": "%"},
      {"measurement": "viability, T/C", "setting": "second compound 10 µM, first compound 0.3 µM", "result": 44.5, "unit": "%"},
      {"measurement": "viability, T/C", "setting": "second compound 10 µM, first compound 0.949 µM", "result": 31.9, "unit": "%"},
      {"measurement": "viability, T/C", "setting": "second compound 10 µM, first compound 3 µM", "result": 28.5, "unit": "%"}
    ]},
    {"smiles": "CC(C)CC(NC(=O)C(Cc1ccccc1)NC(=O)c1cnccn1)B(O)O", "note": "(centres undefined) + NC1CC1c1ccc(-c2cccc(O)c2)cc1", "values": [
      {"measurement": "IC50", "setting": "[1]", "result": 0.874, "unit": "nM"},
      {"measurement": "IC50", "setting": "[2]", "result": 0.885, "unit": "nM"},
      {"measurement": "IC50", "setting": "[3]", "result": 0.949, "unit": "nM"},
      {"measurement": "IC50", "setting": "[4]", "result": 0.798, "unit": "nM"},
      {"measurement": "IC50", "setting": "[5]", "result": 0.581, "unit": "nM"},
      {"measurement": "viability, T/C", "setting": "second compound 0.1 µM, first compound 0.000316 µM", "result": 104, "unit": "%"},
      {"measurement": "viability, T/C", "setting": "second compound 0.1 µM, first compound 0.001 µM", "result": 42.8, "unit": "%"},
      {"measurement": "viability, T/C", "setting": "second compound 0.1 µM, first compound 0.00316 µM", "result": 0.61, "unit": "%"},
      {"measurement": "viability, T/C", "setting": "second compound 0.1 µM, first compound 0.01 µM", "result": 0.03, "unit": "%"},
      {"measurement": "viability, T/C", "setting": "second compound 0.1 µM, first compound 0.0316 µM", "result": 0.03, "unit": "%"},
      {"measurement": "viability, T/C", "setting": "second compound 0.1 µM, first compound 0.1 µM", "result": 0.12, "unit": "%"},
      {"measurement": "viability, T/C", "setting": "second compound 0.316 µM, first compound 0.000316 µM", "result": 108, "unit": "%"},
      {"measurement": "viability, T/C", "setting": "second compound 0.316 µM, first compound 0.001 µM", "result": 43.1, "unit": "%"},
      {"measurement": "viability, T/C", "setting": "second compound 0.316 µM, first compound 0.00316 µM", "result": 0.43, "unit": "%"},
      {"measurement": "viability, T/C", "setting": "second compound 0.316 µM, first compound 0.01 µM", "result": 0.02, "unit": "%"},
      {"measurement": "viability, T/C", "setting": "second compound 0.316 µM, first compound 0.0316 µM", "result": 0.02, "unit": "%"},
      {"measurement": "viability, T/C", "setting": "second compound 0.316 µM, first compound 0.1 µM", "result": 0.12, "unit": "%"},
      {"measurement": "viability, T/C", "setting": "second compound 1 µM, first compound 0.000316 µM", "result": 124, "unit": "%"},
      {"measurement": "viability, T/C", "setting": "second compound 1 µM, first compound 0.001 µM", "result": 46.5, "unit": "%"},
      {"measurement": "viability, T/C", "setting": "second compound 1 µM, first compound 0.00316 µM", "result": 0.86, "unit": "%"},
      {"measurement": "viability, T/C", "setting": "second compound 1 µM, first compound 0.01 µM", "result": 0.02, "unit": "%"},
      {"measurement": "viability, T/C", "setting": "second compound 1 µM, first compound 0.0316 µM", "result": 0.02, "unit": "%"},
      {"measurement": "viability, T/C", "setting": "second compound 1 µM, first compound 0.1 µM", "result": 0.56, "unit": "%"},
      {"measurement": "viability, T/C", "setting": "second compound 3.16 µM, first compound 0.000316 µM", "result": 108, "unit": "%"},
      {"measurement": "viability, T/C", "setting": "second compound 3.16 µM, first compound 0.001 µM", "result": 35.9, "unit": "%"},
      {"measurement": "viability, T/C", "setting": "second compound 3.16 µM, first compound 0.00316 µM", "result": 1.57, "unit": "%"},
      {"measurement": "viability, T/C", "setting": "second compound 3.16 µM, first compound 0.01 µM", "result": 0.04, "unit": "%"},
      {"measurement": "viability, T/C", "setting": "second compound 3.16 µM, first compound 0.0316 µM", "result": 0.04, "unit": "%"},
      {"measurement": "viability, T/C", "setting": "second compound 3.16 µM, first compound 0.1 µM", "result": 0.3, "unit": "%"},
      {"measurement": "viability, T/C", "setting": "second compound 10 µM, first compound 0.000316 µM", "result": 82.5, "unit": "%"},
      {"measurement": "viability, T/C", "setting": "second compound 10 µM, first compound 0.001 µM", "result": 21, "unit": "%"},
      {"measurement": "viability, T/C", "setting": "second compound 10 µM, first compound 0.00316 µM", "result": 0.27, "unit": "%"},
      {"measurement": "viability, T/C", "setting": "second compound 10 µM, first compound 0.01 µM", "result": 0.21, "unit": "%"},
      {"measurement": "viability, T/C", "setting": "second compound 10 µM, first compound 0.0316 µM", "result": 0.61, "unit": "%"},
      {"measurement": "viability, T/C", "setting": "second compound 10 µM, first compound 0.1 µM", "result": 0.22, "unit": "%"}
    ]}
  ]
}
